Several values for one entry are separate records, joined by “and”; a condition that tells them apart may be missing. Equal values may be shown once. Entries after “also recorded” stand apart in the source; their conditions may differ. Read-outs that look alike come from different tables or passages of the source.
Experiments:
DRD2 F1103.28A [1] = biological target: T1, DRD2 F1103.28A (Homo sapiens, UniProt P14416, F110A); conditions: cited from earlier work
DRD3 [2] = biological target: T2, DRD3 (Homo sapiens, UniProt P35462); assay: Gαi/o-mediated cAMP inhibition (GloSensor); type: cell-based
T2 sequence (P35462 whole entry): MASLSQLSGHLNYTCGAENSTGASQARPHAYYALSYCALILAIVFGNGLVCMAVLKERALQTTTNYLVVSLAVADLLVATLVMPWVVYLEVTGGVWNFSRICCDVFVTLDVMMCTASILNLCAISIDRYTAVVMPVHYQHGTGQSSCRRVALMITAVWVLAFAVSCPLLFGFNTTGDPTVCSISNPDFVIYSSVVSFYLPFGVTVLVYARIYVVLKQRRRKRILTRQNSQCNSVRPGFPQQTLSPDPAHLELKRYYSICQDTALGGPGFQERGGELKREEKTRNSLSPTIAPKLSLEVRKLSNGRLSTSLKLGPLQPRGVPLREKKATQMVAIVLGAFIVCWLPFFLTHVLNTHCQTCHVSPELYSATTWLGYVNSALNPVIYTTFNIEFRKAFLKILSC

DRD2 S1975.46G = biological target: T3, DRD2 S1975.46G (Homo sapiens, UniProt P14416, S197G); assay: Gαi/o-mediated cAMP inhibition (GloSensor), mutant; type: cell-based; conditions: DRD2 Ser197^5.46Gly; G-protein assay
T3 construct: expressed in transfected cells; host or cells: HEK293T (ATCC CRL-11268)
T3 sequence (P14416 whole entry S197G): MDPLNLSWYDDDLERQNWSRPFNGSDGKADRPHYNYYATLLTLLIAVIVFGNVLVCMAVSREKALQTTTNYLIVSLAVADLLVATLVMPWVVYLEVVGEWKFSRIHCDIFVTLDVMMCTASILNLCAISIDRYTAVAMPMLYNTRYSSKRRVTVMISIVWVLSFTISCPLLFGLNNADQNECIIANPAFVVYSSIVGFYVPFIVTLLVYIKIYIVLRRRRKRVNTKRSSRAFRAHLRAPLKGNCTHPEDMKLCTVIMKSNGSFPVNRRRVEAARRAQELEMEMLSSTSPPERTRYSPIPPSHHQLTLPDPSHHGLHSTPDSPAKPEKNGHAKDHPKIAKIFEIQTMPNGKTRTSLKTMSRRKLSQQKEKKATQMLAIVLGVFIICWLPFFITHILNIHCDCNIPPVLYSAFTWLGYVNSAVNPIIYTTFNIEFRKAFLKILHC

DRD3 [3] = biological target: T2, DRD3; assay: β-arrestin2 recruitment (Tango); type: cell-based
DRD4 (D4.4 variant) [4] = biological target: T4, DRD4 (D4.4 variant) (Homo sapiens, UniProt P21917); assay: Gαi/o-mediated cAMP inhibition (GloSensor); type: cell-based
T4 sequence (P21917 1-419): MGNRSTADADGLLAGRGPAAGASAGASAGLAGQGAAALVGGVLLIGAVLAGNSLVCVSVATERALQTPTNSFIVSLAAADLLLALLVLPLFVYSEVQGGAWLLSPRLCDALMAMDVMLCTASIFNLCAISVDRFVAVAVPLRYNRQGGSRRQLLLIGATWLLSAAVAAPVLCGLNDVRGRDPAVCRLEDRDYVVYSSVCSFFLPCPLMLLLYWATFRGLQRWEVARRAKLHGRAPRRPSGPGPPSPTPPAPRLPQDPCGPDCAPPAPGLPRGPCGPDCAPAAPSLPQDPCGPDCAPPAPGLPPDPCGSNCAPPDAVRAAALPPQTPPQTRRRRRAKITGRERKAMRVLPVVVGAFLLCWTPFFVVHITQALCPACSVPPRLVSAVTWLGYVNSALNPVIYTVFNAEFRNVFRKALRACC

DRD2 (D2 long receptor) [5] = biological target: T5, DRD2 (D2 long receptor) (Homo sapiens, UniProt P14416); assay: β-arrestin2 recruitment (Tango), HTLA cells; type: cell-based; conditions: for response, Fig_S11e dose-response source data: replicate values
T5 sequence (P14416 whole entry): as the sequence (P14416 whole entry S197G) above, with G197S counted along it

DRD3 wild-type = DRD3 wild-type (Homo sapiens, UniProt P35462); assay: Radioligand competition binding, [3H]-N-methylspiperone
DRD3 wild-type, sequence (P35462 whole entry): as the sequence (P35462 whole entry) above

DRD2 (D2 long receptor) [6] = biological target: T5, DRD2 (D2 long receptor); assay: Gαi/o-mediated cAMP inhibition (GloSensor split-luciferase cAMP reporter), HEK293T; type: cell-based; conditions: for response, Fig_S11d dose-response source data: replicate values;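 for all read-outs here: compounds applied 15 min at room temperature, then luciferin plus 400 nM isoproterenol to raise cAMP through endogenous β2-adrenergic receptors, luminescence read 15 min later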
[7] = biological target: T6, DRD4 (D4.4 variant) wild-type (Homo sapiens, UniProt P21917); assay: Radioligand competition binding, [3H]-N-methylspiperone
T6 sequence (P21917 1-419): T4 sequence (P21917 1-419)

DRD4 (D4.4 variant) [8] = biological target: T4, DRD4 (D4.4 variant); assay: β-arrestin2 recruitment (Tango); type: cell-based
[9] = biological target: DRD2 (D2 long receptor) wild-type (Homo sapiens, UniProt P14416); assay: Radioligand competition binding, [3H]-N-methylspiperone, HEK293T membranes
DRD2 (D2 long receptor) wild-type, sequence (P14416 whole entry): as the sequence (P14416 whole entry S197G) above, with G197S counted along it

DRD3 F1063.28A [10] = biological target: T7, DRD3 F1063.28A (Homo sapiens, UniProt P35462, F106A); assay: cell-based; type: cell-based; conditions: DRD3 F1063.28A; Tango; read-out: EC50 ± SEM
T7 sequence (P35462 whole entry F106A): as the sequence (P35462 whole entry) above, with F106A counted along it

DRD2 F1103.28L [11] = biological target: T8, DRD2 F1103.28L (Homo sapiens, UniProt P14416, F110L); assay: Gαi/o-mediated cAMP inhibition (GloSensor), mutant; type: cell-based; conditions: DRD2 F1103.28L (b138 head prints DRD2 F1063.28L)
T8 construct: expressed in transfected cells; host or cells: HEK293T (ATCC CRL-11268)
T8 sequence (P14416 whole entry F110L): as the sequence (P14416 whole entry S197G) above, with F110L, G197S counted along it

DRD2 F1103.28A [12] = biological target: T1, DRD2 F1103.28A; assay: Gαi/o-mediated cAMP inhibition (GloSensor), mutant; type: cell-based; design: expressed in transfected cells; host or cells: HEK293T (ATCC CRL-11268)
DRD2 F1103.28A [13] = biological target: T1, DRD2 F1103.28A; type: binding; design: expressed in transfected cells; host or cells: HEK293T (ATCC CRL-11268); conditions: DRD2 F1103.28A; read-out: Ki
DRD3 F1063.28A [14] = biological target: T7, DRD3 F1063.28A; assay: biochemical; type: binding; conditions: DRD3 F1063.28A; read-out: Ki
DRD2 F1103.28A [15] = biological target: T1, DRD2 F1103.28A; assay: β-arrestin2 recruitment (Tango), mutant; type: cell-based; design: expressed in transfected cells; host or cells: HEK293T (ATCC CRL-11268)
DRD2 F1103.28L [16] = biological target: T8, DRD2 F1103.28L; assay: β-arrestin2 recruitment (Tango), mutant; type: cell-based
[17] = read-out: Emax relative to quinpirole response

T1 sequence (P14416 whole entry F110A): as the sequence (P14416 whole entry S197G) above, with F110A, G197S counted along it

Cc1nc2n(c(=O)c1CCN1CCC(c3noc4cc(F)ccc34)CC1)CCCC2 [risperidone]
effect of Phe110^3.28Ala mutation on binding (DRD2 F1103.28A [1]; previous published studies): did not enhance the binding; also recorded: didn’t enhance the binding

CC(CCc1ccccc1[N+](=O)[O-])NCC1(O)CCCCC1 (centres unmarked) [O7LE6]
EC50 (DRD3 [2]): 0.00196 µM | Emax (DRD3 [2]; [17]): 82.7% | agonism after serine to glycine substitution (DRD2 S1975.46G): substantially diminished | EC50 (DRD3 [3]): 0.117 µM | Emax (DRD3 [3]; [17]): 88.5% | EC50 (DRD4 (D4.4 variant) [4]): > 10 µM | G protein agonist activity (DRD4 (D4.4 variant) [4]; DRD4, cAMP inhibition): no DRD4 activity | EC50 (DRD2 (D2 long receptor) [5]): 0.00695 µM | Emax (DRD2 (D2 long receptor) [5]; HTLA, read-out: Emax relative to quinpirole response): 85.3% | Ki (DRD3 wild-type): 0.174 µM | EC50 (DRD2 (D2 long receptor) [6]): 0.00113 µM | Emax (DRD2 (D2 long receptor) [6]; HEK-293T, read-out: Emax relative to quinpirole response): 100% | Ki ([7]; Ki): > 10 µM | EC50 (DRD4 (D4.4 variant) [8]): > 10 µM | β-arrestin2 recruitment agonist activity (DRD4 (D4.4 variant) [8]; DRD4, Tango): no DRD4 activity | Ki ([9]; Ki): 1.41 µM

CNc1cc(OC)c(C(=O)NC2CCN(Cc3ccccc3)C2C)cc1Cl (centres unmarked) [nemonapride]
effect of Phe110^3.28Ala mutation on binding (DRD2 F1103.28A [1]): did not enhance the binding; also recorded: didn’t enhance the binding

CCOc1cccc2cc(C(C)NCC3(O)CCC3)oc12.Cl (centres unmarked) [O4LE4]
EC50 (DRD3 [3]; DRD3, Tango, read-out: EC50 ± SEM): > 10 µM | EC50 (DRD4 (D4.4 variant) [4]; DRD4, agonist, cAMP inhibition, read-out: EC50 ± SEM): > 10 µM | EC50 (DRD3 F1063.28A [10]): > 10 µM | EC50 (DRD2 F1103.28L [11]): > 10 µM | EC50 (DRD2 F1103.28A [12]): > 10 µM | Ki (DRD2 F1103.28A [13]): > 10 µM | Emax relative to quinpirole response (DRD2 (D2 long receptor) [5]; DRD2, Tango): 31.72% | EC50 (DRD2 (D2 long receptor) [5]; DRD2, β-arrestin2 recruitment (Tango), read-out: EC50 ± SEM): 4.89 ± 0.671 µM | response, Fig_S11e dose-response source data (DRD2 (D2 long receptor) [5]; Log[Drug] -6.52): 6.042 | response, Fig_S11e dose-response source data (DRD2 (D2 long receptor) [5]; Log[Drug] -7): 4.575 and 5.092 and 4.213 and 4.207 and 4.48 | response, Fig_S11e dose-response source data (DRD2 (D2 long receptor) [5]; Log[Drug] -7.52): 3.784 and 4.2108 and 4.594 and 4.116 and 3.67 | response, Fig_S11e dose-response source data (DRD2 (D2 long receptor) [5]; Log[Drug] -8): 3.831 and 3.706 and 4.29 and 4.002 and 5.34 | response, Fig_S11e dose-response source data (DRD2 (D2 long receptor) [5]; Log[Drug] -8.52): 4.064 and 3.966 and 4.203 and 4.282 and 4.286 | response, Fig_S11e dose-response source data (DRD2 (D2 long receptor) [5]; Log[Drug] -9): 3.882 and 3.744 and 4.042 and 3.918 and 3.839 | response, Fig_S11e dose-response source data (DRD2 (D2 long receptor) [5]; Log[Drug] -9.52): 3.68 and 4.032 and 4.215 and 3.926 and 3.7929 | response, Fig_S11e dose-response source data (DRD2 (D2 long receptor) [5]; Log[Drug] -10): 3.326 and 3.898 and 4.025 and 3.996 | response, Fig_S11e dose-response source data (DRD2 (D2 long receptor) [5]; Log[Drug] -10.52): 3.698 and 4.067 and 4.341 and 4.225 and 3.808 | response, Fig_S11e dose-response source data (DRD2 (D2 long receptor) [5]; Log[Drug] -11): 4.084 and 3.675 and 4.011 and 3.975 and 3.611 | response, Fig_S11e dose-response source data (DRD2 (D2 long receptor) [5]; Log[Drug] -11.52): 3.79 and 4.079 and 4.55 and 4.262 and 4.155 | response, Fig_S11e dose-response source data (DRD2 (D2 long receptor) [5]; Log[Drug] -12): 5.029 and 3.661 and 4.455 and 4.071 and 4.046 | Ki (DRD3 wild-type; DRD3, [3H]-methylspiperone (0.8-1.0 nM), read-out: Ki): 4.07 µM | pKi ± SEM (DRD3 wild-type; DRD3 wild-type): 5.39±0.09 | EC50 (DRD2 (D2 long receptor) [6]; DRD2, agonist, Gαi/o-mediated cAMP inhibition, read-out: EC50 ± SEM): > 10 µM | response, Fig_S11d dose-response source data (DRD2 (D2 long receptor) [6]; Log[Drug] -5): 88.7746 and 78.3782 and 91.7272 and 89.26 and 93.9579 and 91.5672 | response, Fig_S11d dose-response source data (DRD2 (D2 long receptor) [6]; Log[Drug] -5.52): 76.2939 and 86.2437 and 82.5466 and 72.7587 and 77.8913 and 84.3113 | response, Fig_S11d dose-response source data (DRD2 (D2 long receptor) [6]; Log[Drug] -6): 73.2172 and 67.3366 and 60.3892 and 68.228 and 67.275 and 64.901 | response, Fig_S11d dose-response source data (DRD2 (D2 long receptor) [6]; Log[Drug] -6.52): 64.6321 and 59.5207 and 69.0487 and 71.8726 and 63.9982 and 65.6366 | response, Fig_S11d dose-response source data (DRD2 (D2 long receptor) [6]; Log[Drug] -7): 48.9755 and 46.0724 and 53.9876 and 53.6995 and 51.8772 and 46.0423 | response, Fig_S11d dose-response source data (DRD2 (D2 long receptor) [6]; Log[Drug] -7.52): 42.028 and 41.6806 and 36.1226 and 35.9109 and 33.9715 and 35.5263 | response, Fig_S11d dose-response source data (DRD2 (D2 long receptor) [6]; Log[Drug] -8): 31.6316 and 34.088 and 41.4325 and 32.2829 and 31.564 and 29.1733 | response, Fig_S11d dose-response source data (DRD2 (D2 long receptor) [6]; Log[Drug] -8.52): 10.5658 and 5.306 and 29.9195 and 26.7491 and 32.2996 and 23.9905 | response, Fig_S11d dose-response source data (DRD2 (D2 long receptor) [6]; Log[Drug] -9): 29.0014 and 17.2156 and 19.2005 and 25.2611 | response, Fig_S11d dose-response source data (DRD2 (D2 long receptor) [6]; Log[Drug] -9.52): 13.8163 and 7.489 and 22.6246 and 25.1441 and 33.3529 and 8.96 | response, Fig_S11d dose-response source data (DRD2 (D2 long receptor) [6]; Log[Drug] -10): 3.445 and 9.573 and 23.9738 and 15.1965 and 19.209 | response, Fig_S11d dose-response source data (DRD2 (D2 long receptor) [6]; Log[Drug] -10.52): 10.9876 and 14.9328 and 18.3073 and 10.6825 and 15.9488 | response, Fig_S11d dose-response source data (DRD2 (D2 long receptor) [6]; Log[Drug] -11): 8.655 and 3.048 and 14.6949 and 5.45 and 17.0857 | response, Fig_S11d dose-response source data (DRD2 (D2 long receptor) [6]; Log[Drug] -11.52): 13.0471 and 8.407 and 20.4163 | response, Fig_S11d dose-response source data (DRD2 (D2 long receptor) [6]; Log[Drug] -12): 4.834 and -8.7134 and -10.8678 and -0.937 | Ki (DRD3 F1063.28A [14]): > 10 µM | EC50 (DRD2 F1103.28A [15]): > 10 µM | EC50 (DRD2 F1103.28L [16]): > 10 µM | Ki ([7]; DRD4, [3H]-methylspiperone (0.8-1.0 nM), read-out: Ki): > 10 µM | EC50 (DRD4 (D4.4 variant) [8]; DRD4, Tango, read-out: EC50 ± SEM): > 10 µM | Ki ([9]; DRD2, [3H]-methylspiperone (0.8-1.0 nM), read-out: Ki): > 10 µM

Reference: paper PMC7044277 (Nature Communications, 2020)
